This passage reports inhibition and EC50 results from patent US9238039B2, “Pyrazolo[1,5-A]pyrimidines for antiviral treatment” (Gilead Sciences, Inc., priority 2010, dated 2016).

One may read the inhibition as the relative decrease from the control value, in per cent. Usually EC50 stands for the concentration that produces a half-maximal response.

The assay has as its system RSV strain A2. Put plainly: RSV antiviral cytoprotection assay in Hep2 cells (96-well and 384-well format, Cell TiterGlo read-out). Format: cell-based, Respiratory Syncytial Virus (RSV). To be noted: human respiratory syncytial virus; for inhibition at 0.5 µM: HEp-2, 0.5 uM; for EC50: HEp-2, RSV-induced cytopathic effects, Hep2 cells, class symbols. For orientation: Cellular ATP, detected with luciferase, serves as a proxy for viable cell number.

The mark [1] stands for this setting: RSV-induced cytopathic effect in Hep2 cells, calculated from fitted dose response curve, normalized to 0% and 100%.

Regarding `CC#Cc1cc(N2CCOCC2)n2nc([C@@H]3CCCCN3C(=O)c3cc(Cl)ccc3NS(C)(=O)=O)cc2n1` [Compound 110], the EC50 lay in the range of 0.1 to 100 nM. Besides, the inhibition at 0.5 µM under setting [1] is 100%.
As to `Cc1cc(C)n2nc(C(=O)N3CCCCC3c3cc4nc(N5CC[C@H](N)C5)c(C)cn4n3)nc2n1` (stereo partly drawn) [Compound 397], the EC50 was in the range of 1000 to 10000 nM. The inhibition at 0.5 µM under setting [1] is 3%.
In the case of `Cc1ccc(C(=O)N2CCCC[C@H]2c2cc3nc(N4CC[C@H](N)C4)c(C)cn3n2)c(O)c1` [Compound 293], the EC50 is 101 to 1000 nM. Further, the inhibition at 0.5 µM under setting [1] was 64%.
Taken in the same sequence, the figures for `Cc1cc(N2CC(N)C2)nc2cc([C@@H]3CCCCN3C(=O)c3cc(Cl)ccc3NS(C)(=O)=O)nn12` [Compound 52] were 0.1 to 100 nM and 100%.
Taken in the same sequence, the figures for `COCc1ccc(C(=O)N2CCCC[C@H]2c2cc3nc(N4CC[C@H](N)C4)c(C)cn3n2)cc1` [Compound 321] were 0.1 to 100 nM and 100%.
Taken in the same sequence, the figures for `Cc1cc(C2CC2)nc2cc([C@@H]3CCCCN3C(=O)C(NC(=O)OC(C)(C)C)c3ccccc3)nn12` (stereo partly drawn) [Compound 242] were 101 to 1000 nM and 72%.
For the compound `Cc1cn2nc([C@@H]3CCCCN3C(=O)c3cccc4c3OCC4)cc2nc1N1CC[C@H](N)C1` [Compound 317], the EC50 lay within 0.1 to 100 nM. Also, the inhibition at 0.5 µM under setting [1] was 100%.
Turning to `Cc1cc(NS(C)(=O)=O)c(C(=O)N2CCCC[C@H]2c2cc3nc(C4CC4)cc(C)n3n2)s1` [Compound 111], the EC50 is 0.1 to 100 nM. In addition, under setting [1], the inhibition at 0.5 µM is 95%.
For the compound `Cc1ccc(C)c(C(=O)N2CCCC[C@H]2c2cc3nc(N4CC[C@H](N)C4)c(C)cn3n2)c1` [Compound 161], the EC50 lay within 0.1 to 100 nM. Moreover, the inhibition at 0.5 µM under setting [1] was 100%.
With `Cc1cn2nc([C@@H]3CCCCN3C(=O)c3ccsc3)cc2nc1N1CC[C@H](N)C1` [Compound 267], the EC50 lay in the range of 0.1 to 100 nM. Besides, the inhibition at 0.5 µM under setting [1] is 99%.
For the compound `CNC(=O)c1cc(C(=O)N2CCCC[C@H]2c2cc3nc(N4CC[C@H](N)C4)c(C)cn3n2)n(C)n1` [Compound 371], the EC50 was in the range of 0.1 to 100 nM. The inhibition at 0.5 µM under setting [1] is 100%.
The matching figures for `Cc1cn2nc([C@@H]3CCCCN3C(=O)c3cc(N)ccc3NS(C)(=O)=O)cc2nc1N1CC(O)C1` [Compound 192]: 0.1 to 100 nM and 100%.
For the compound `Cc1cn2nc([C@@H]3CCCCN3C(=O)c3c(F)ccc(F)c3F)cc2nc1N1CC[C@H](N)C1` [Compound 353], the EC50 was 0.1 to 100 nM. In addition, the inhibition at 0.5 µM under setting [1] was 100%.
The matching figures for `CS(=O)(=O)Nc1ccc(Cl)cc1C(=O)N1CCCCCC1c1cc2nc(N3CCC3)cc(N3CCOCC3)n2n1` (stereo not drawn) [Compound 177]: 0.1 to 100 nM and 99%.
Turning to `Cc1cc(C2CC2)nc2cc([C@@H]3CCCCN3C(=O)c3cc(N)ccc3NS(C)(=O)=O)nn12` [Compound 114], the EC50 was 0.1 to 100 nM. Under setting [1], the inhibition at 0.5 µM was 100%.
Taken in the same sequence, the figures for `Cc1cc(Cl)cc(C(=O)N2CCCC[C@H]2c2cc3[nH]c(C)c(C)c(=O)n3n2)c1NS(C)(=O)=O` [Compound 120] were 0.1 to 100 nM and 100%.
Take `Cc1cn2nc([C@@H]3CCCCN3C(=O)c3cc(Cl)ccc3NS(C)(=O)=O)cc2nc1N(C)CCO` [Compound 150]: the EC50 lay within 0.1 to 100 nM. For the same compound, the inhibition at 0.5 µM under setting [1] was 97%.
The matching figures for `Cc1cn2nc([C@@H]3CCCCN3C(=O)c3ccc(F)c(C)c3Cl)cc2nc1N1CC[C@H](N)C1` [Compound 380]: 101 to 1000 nM and 80%.
For `Cc1cn2nc([C@@H]3CCCCN3C(=O)c3cc(Cl)ccc3NS(C)(=O)=O)cc2nc1N1CCCCN1` [Compound 141], the EC50 lay within 0.1 to 100 nM. Besides, under setting [1], the inhibition at 0.5 µM was 95%.
The matching figures for `CC(=O)Nc1ccc(Cl)cc1C(=O)N1CCCC[C@H]1c1cc2nc(N3CC[C@H](N)C3)c(C)cn2n1` [Compound 223]: 0.1 to 100 nM and 100%.
For the compound `CS(=O)(=O)Nc1ccc(Cl)cc1C(=O)N1CCCC[C@H]1c1cc2nc(N3CC(O)C3)cc(N3CC(O)C3)n2n1` [Compound 59], the concentration giving a half-maximal response (EC50) is 0.1 to 100 nM. The inhibition at 0.5 µM under setting [1] was 100%.
Taken in the same sequence, the figures for `Cc1cn2nc([C@@H]3CCCCN3C(=O)c3ccccc3-c3cccnc3)cc2nc1N1CC[C@H](N)C1` [Compound 409] were 0.1 to 100 nM and 99%.
Turning to `Cc1cccc(C(=O)N2CCCC[C@H]2c2cc3nc(N4CC[C@H](N)C4)c(C)cn3n2)c1` [Compound 157], the EC50 was in the range of 0.1 to 100 nM. In addition, the inhibition at 0.5 µM under setting [1] was 100%.
Turning to `Cc1cn2nc([C@@H]3CCCCN3C(=O)c3cccc(-c4cccnc4)c3)cc2nc1N1CC[C@H](N)C1` [Compound 411], the EC50 was in the range of 101 to 1000 nM. For the same compound, under setting [1], the inhibition at 0.5 µM is 95%.
Turning to `Cc1[nH]c2cc([C@@H]3C[C@H](C)CCN3C(=O)c3cc(F)ccc3NS(C)(=O)=O)nn2c(=O)c1C` [Compound 21], the EC50 lay in the range of 1000 to 10000 nM. Besides, the inhibition at 0.5 µM under setting [1] was 4%. Moreover, the inhibition at 1 µM (HEp-2, 1 uM, RSV-induced cytopathic effect in Hep2 cells, calculated from fitted dose response curve, normalized to 0% and 100%) was 10%.
For `Cc1cn2nc([C@@H]3CCCCN3C(=O)c3c(C)cccc3NS(C)(=O)=O)cc2nc1N1CCC1` [Compound 225], the EC50 is 0.1 to 100 nM. Besides, the inhibition at 0.5 µM under setting [1] is 100%.
As to `CCc1cc(C(=O)N2CCCC[C@H]2c2cc3nc(N4CC[C@H](N)C4)c(C)cn3n2)n(C)n1` [Compound 303], the EC50 was 0.1 to 100 nM. Moreover, the inhibition at 0.5 µM under setting [1] was 100%.
For the compound `Cc1cn2nc([C@@H]3CCCCN3C(=O)c3ccnn3CC(F)(F)F)cc2nc1N1CC[C@H](N)C1` [Compound 401], the EC50 was 0.1 to 100 nM. In addition, under setting [1], the inhibition at 0.5 µM was 100%.
With `Cc1cn2nc([C@@H]3CCCCN3C(=O)c3ccccc3OC(F)F)cc2nc1N1CC[C@H](N)C1` [Compound 379], the EC50 was in the range of 0.1 to 100 nM. Moreover, the inhibition at 0.5 µM under setting [1] was 100%.
For the compound `COc1ccc(C(=O)N2CCCC[C@H]2c2cc3nc(N4CC[C@H](N)C4)c(C)cn3n2)c(C)c1` [Compound 322], the EC50 is 0.1 to 100 nM. In addition, the inhibition at 0.5 µM under setting [1] is 100%.
Taken in the same sequence, the figures for `Cc1ccc(NS(C)(=O)=O)c(C(=O)N2CCCC[C@H]2c2cc3nc(N4CC(N)C4)c(C)cn3n2)c1` [Compound 191] were 0.1 to 100 nM and 100%.
Taken in the same sequence, the figures for `COc1cccc(C(=O)N2CCCC[C@H]2c2cc3nc(N4CC[C@H](N)C4)c(C)cn3n2)c1O` [Compound 325] were 0.1 to 100 nM and 98%.
With `Cc1[nH]c2cc([C@@H]3CCCCN3C(=O)c3cc(F)cc(Cl)c3NS(C)(=O)=O)nn2c(=O)c1C` [Compound 127], the EC50 lay within 0.1 to 100 nM. For the same compound, the inhibition at 0.5 µM under setting [1] is 99%.
The matching figures for `Cc1cn2nc([C@@H]3CCCCN3C(=O)c3cn(C)nc3C(F)(F)F)cc2nc1N1CC[C@H](N)C1` [Compound 402]: 0.1 to 100 nM and 99%.
Regarding `CC(=O)Nc1ccc(C)cc1C(=O)N1CCCC[C@H]1c1cc2nc(N3CC(N)C3)c(C)cn2n1` [Compound 222], the EC50 lay within 0.1 to 100 nM. The inhibition at 0.5 µM under setting [1] is 100%.
For the compound `Cc1cn2nc([C@@H]3CCCCN3C(=O)c3cc(Cl)ccc3NS(C)(=O)=O)cc2nc1N1CCC(Oc2ccccc2)C1` (stereo partly drawn) [Compound 208], the EC50 fell in the range of 0.1 to 100 nM. Besides, under setting [1], the inhibition at 0.5 µM was 95%.
Regarding `CC(=O)Nc1c(Cl)ccc(Cl)c1C(=O)N1CCCC[C@H]1c1cc2[nH]c(C)c(C)c(=O)n2n1` [Compound 245], the EC50 fell in the range of 0.1 to 100 nM. For the same compound, the inhibition at 0.5 µM under setting [1] is 92%.
Taken in the same sequence, the figures for `Cc1cn2nc([C@@H]3CCCCN3C(=O)c3cccc(OC(C)C)c3)cc2nc1N1CC[C@H](N)C1` [Compound 365] were 0.1 to 100 nM and 100%.
Consider `CS(=O)(=O)Nc1ccc(Cl)cc1C(=O)N1CCCC[C@H]1c1cc2nc(N3CC(O)C3)cc(N3CCNCC3)n2n1` [Compound 50], for which the EC50 lay in the range of 0.1 to 100 nM. For the same compound, under setting [1], the inhibition at 0.5 µM is 100%.
In the case of `COC(=O)NC(C(=O)N1CCCC[C@H]1c1cc2nc(C3CC3)cc(C)n2n1)c1ccccc1` (stereo partly drawn) [Compound 118], the EC50 was 0.1 to 100 nM. Further, the inhibition at 0.5 µM under setting [1] was 99%.
The matching figures for `Cc1cn2nc([C@@H]3CCCCN3C(=O)c3cn4ccccc4n3)cc2nc1N1CC[C@H](N)C1` [Compound 311]: 0.1 to 100 nM and 100%.
The matching figures for `CS(=O)(=O)Nc1ccc(N)cc1C(=O)N1CCCC[C@H]1c1cc2nc(N3CCC3)cc(N3CCOCC3)n2n1` [Compound 193]: 0.1 to 100 nM and 100%.
Taken in the same sequence, the figures for `CNC1CCN(c2nc3cc([C@@H]4CCCCN4C(=O)c4cc(Cl)ccc4NS(C)(=O)=O)nn3cc2C)C1` (stereo partly drawn) [Compound 78] were 0.1 to 100 nM and 98%.
`Cc1cn2nc([C@@H]3CCCCN3C(=O)c3ccccc3O)cc2nc1N1CC[C@H](N)C1` [Compound 274]: the concentration giving a half-maximal response (EC50) lay within 0.1 to 100 nM. In addition, under setting [1], the inhibition at 0.5 µM was 100%.
With `Cc1ccc(NS(C)(=O)=O)c(C(=O)N2CCCC[C@H]2c2cc3nc(C)c(C)c(C#N)n3n2)c1` [Compound 103], the EC50 was in the range of 0.1 to 100 nM. For the same compound, the inhibition at 0.5 µM under setting [1] was 98%.
On to `Cc1cn2nc([C@@H]3CCCCN3C(=O)c3csnn3)cc2nc1N1CC[C@H](N)C1` [Compound 271], for which the EC50 lay within 0.1 to 100 nM. For the same compound, the inhibition at 0.5 µM under setting [1] was 97%.
The matching figures for `CCc1ccc(C(=O)N2CCCC[C@H]2c2cc3nc(N4CC[C@H](N)C4)c(C)cn3n2)s1` [Compound 304]: 0.1 to 100 nM and 100%.
On to `Cc1cn2nc([C@@H]3CCCCN3C(=O)c3cc(-c4ccccc4)on3)cc2nc1N1CC[C@H](N)C1` [Compound 383], for which the EC50 lay within 0.1 to 100 nM. For the same compound, the inhibition at 0.5 µM under setting [1] was 99%.
As to `Cc1cn2nc([C@@H]3CCCCN3C(=O)c3ccn(CC(F)F)n3)cc2nc1N1CC[C@H](N)C1` [Compound 356], the concentration giving a half-maximal response (EC50) was in the range of 0.1 to 100 nM. The inhibition at 0.5 µM under setting [1] is 100%.
